# According to patent publication US11590139B2, “Substituted aminopurine compounds, compositions thereof, and methods of treatment therewith” (Signal Pharmaceuticals, LLC, priority 2014, dated 2023):
# System: Lox-IMVI melanoma cell line
# Experiment: Lox-IMVI anti-proliferative assay (growth inhibition, Cell Titer-Glo)
# Type: cell-based, human
# Details: Homo sapiens; IC50 activity level in the cell-based Lox-IMVI anti-proliferative assay; read-out: Activity
# Outline: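 Growth inhibition is assessed over 72 h in RPMI + 10% FBS at 0.2% DMSO, with ATP-based luminescence used as the viability measure. IC50 is fitted from normalized dose-response data.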
row,IC50 [nM],Compound
1,> 1000,"NC(=O)[C@H]1CC[C@@H](n2c(Nc3c(F)cc(F)cc3Cl)nc3cnc(NC4COCC4O)nc32)CC1 (stereo partly drawn) [Example 179, (1s,4s)-4-(8-(2-chloro-4,6-difluorophenylamino)-2-(4-hydroxytetrahydrofuran-3-ylamino)-9H-purin-9-yl)cyclohexanecarboxamide]"
2,> 1000,"NC(=O)[C@H]1CC[C@@H](n2c(Nc3c(Cl)cccc3Cl)nc3cnc(NC4COCC4O)nc32)CC1 (stereo partly drawn) [Example 180, (1s,4s)-4-(8-(2,6-dichlorophenylamino)-2-(4-hydroxytetrahydrofuran-3-ylamino)-9H-purin-9-yl)cyclohexanecarboxamide]"
3,500 to 1000,"NC(=O)[C@H]1CC[C@@H](n2c(Nc3c(Cl)cc(Cl)cc3Cl)nc3cnc(NC4COCC4O)nc32)CC1 (stereo partly drawn) [Example 181, (1s,4s)-4-(2-(4-hydroxytetrahydrofuran-3-ylamino)-8-(2,4,6-trichlorophenylamino)-9H-purin-9-yl)cyclohexanecarboxamide]"
4,> 1000,"NC(=O)[C@H]1CC[C@@H](n2c(Nc3c(F)cc(Cl)cc3Cl)nc3cnc(NC4COCC4O)nc32)CC1 (stereo partly drawn) [Example 182, (1s,4s)-4-(8-(2,4-dichloro-6-fluorophenylamino)-2-(4-hydroxytetrahydrofuran-3-ylamino)-9H-purin-9-yl)cyclohexanecarboxamide]"
5,> 1000,"NC(=O)[C@H]1CC[C@@H](n2c(Nc3c(Cl)cc(F)cc3Cl)nc3cnc(NC4COCC4O)nc32)CC1 (stereo partly drawn) [Example 183, (1s,4s)-4-(8-(2,6-dichloro-4-fluorophenylamino)-2-(4-hydroxytetrahydrofuran-3-ylamino)-9H-purin-9-yl)cyclohexanecarboxamide]"
6,> 1000,"NC(=O)[C@H]1CC[C@@H](n2c(Nc3c(F)cc(Cl)cc3F)nc3cnc(NC4COCC4O)nc32)CC1 (stereo partly drawn) [Example 184, (1s,4s)-4-(8-(4-chloro-2,6-difluorophenylamino)-2-(4-hydroxytetrahydrofuran-3-ylamino)-9H-purin-9-yl)cyclohexanecarboxamide]"
7,< 250,"NC(=O)[C@H]1CC[C@@H](n2c(Nc3c(F)cc(F)cc3Cl)nc3cnc(NC4CCC(F)(F)CC4)nc32)CC1 [Example 185, (1s,4s)-4-(8-(2-chloro-4,6-difluorophenylamino)-2-(4,4-difluorocyclohexylamino)-9H-purin-9-yl)cyclohexanecarboxamide]"
8,< 250,"NC(=O)[C@H]1CC[C@@H](n2c(Nc3c(F)cc(Cl)cc3Cl)nc3cnc(NC4CCC(F)(F)CC4)nc32)CC1 [Example 186, (1s,4s)-4-(8-(2,4-dichloro-6-fluorophenylamino)-2-(4,4-difluorocyclohexylamino)-9H-purin-9-yl)cyclohexanecarboxamide]"
9,> 1000,"NC(=O)[C@H]1CC[C@@H](n2c(Nc3c(F)cc(F)cc3Cl)nc3cnc(N[C@@H]4CCCOC4)nc32)CC1 [Example 187, (1S,4s)-4-(8-(2-chloro-4,6-difluorophenylamino)-2-((R)-tetrahydro-2H-pyran-3-ylamino)-9H-purin-9-yl)cyclohexanecarboxamide]"
10,> 1000,"NC(=O)[C@H]1CC[C@@H](n2c(Nc3c(F)cc(Cl)cc3F)nc3cnc(N[C@@H]4CCCOC4)nc32)CC1 [Example 188, (1S,4s)-4-(8-(4-chloro-2,6-difluorophenylamino)-2-((R)-tetrahydro-2H-pyran-3-ylamino)-9H-purin-9-yl)cyclohexanecarboxamide]"
11,> 1000,"NC(=O)[C@H]1CC[C@@H](n2c(Nc3c(Cl)cc(F)cc3Cl)nc3cnc(N[C@@H]4CCCOC4)nc32)CC1 [Example 189, (1S,4s)-4-(8-(2,6-dichloro-4-fluorophenylamino)-2-((R)-tetrahydro-2H-pyran-3-ylamino)-9H-purin-9-yl)cyclohexanecarboxamide]"
12,> 1000,"NC(=O)[C@H]1CC[C@@H](n2c(Nc3c(F)cc(Cl)cc3Cl)nc3cnc(N[C@@H]4CCCOC4)nc32)CC1 [Example 190, (1S,4s)-4-(8-(2,4-dichloro-6-fluorophenylamino)-2-((R)-tetrahydro-2H-pyran-3-ylamino)-9H-purin-9-yl)cyclohexanecarboxamide]"
